Measurements taken from PMC3254236 (Bioorganic & Medicinal Chemistry, 2011).
pEC50: −log10 of the molar value.

Biological target: T1, full length murine FXR (Mus musculus, UniProt Q60641)
T1 sequence (Q60641 1-488): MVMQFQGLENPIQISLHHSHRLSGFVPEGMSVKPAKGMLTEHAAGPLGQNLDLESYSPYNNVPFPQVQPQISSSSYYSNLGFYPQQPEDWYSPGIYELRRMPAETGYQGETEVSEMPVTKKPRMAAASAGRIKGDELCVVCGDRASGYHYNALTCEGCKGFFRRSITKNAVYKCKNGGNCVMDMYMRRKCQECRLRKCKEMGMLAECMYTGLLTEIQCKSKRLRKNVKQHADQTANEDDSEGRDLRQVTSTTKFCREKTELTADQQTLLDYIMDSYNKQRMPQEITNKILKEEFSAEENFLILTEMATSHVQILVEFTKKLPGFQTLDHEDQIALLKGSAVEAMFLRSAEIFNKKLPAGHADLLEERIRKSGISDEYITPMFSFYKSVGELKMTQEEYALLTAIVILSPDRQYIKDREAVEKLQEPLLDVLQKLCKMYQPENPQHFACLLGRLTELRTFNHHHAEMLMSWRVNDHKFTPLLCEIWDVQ
T1 sequence (P28700 1-467 partner): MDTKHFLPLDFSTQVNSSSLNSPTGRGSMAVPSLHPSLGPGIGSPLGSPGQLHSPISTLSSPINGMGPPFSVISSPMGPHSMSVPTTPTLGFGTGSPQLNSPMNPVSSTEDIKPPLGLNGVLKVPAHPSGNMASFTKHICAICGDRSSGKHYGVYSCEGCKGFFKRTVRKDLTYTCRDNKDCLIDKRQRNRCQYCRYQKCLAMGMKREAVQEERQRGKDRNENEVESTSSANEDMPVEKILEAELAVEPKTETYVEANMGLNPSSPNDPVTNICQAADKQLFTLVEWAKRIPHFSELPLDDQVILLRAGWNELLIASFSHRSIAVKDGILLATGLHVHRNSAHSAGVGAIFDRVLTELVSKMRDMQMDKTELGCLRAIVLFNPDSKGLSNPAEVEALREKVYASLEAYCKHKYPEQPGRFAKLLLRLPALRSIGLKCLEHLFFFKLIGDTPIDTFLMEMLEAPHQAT
Experiment: Reporter gene assay for FXR activation
Format: cell-based
Details: Ganoderma constituents 10 μM; normalized to CDCA 25 μM

Row | Compound | Induction of FXR-dependent transcription
1 | CC(C)[C@@H](C)/C=C/[C@@H](C)[C@H]1CC[C@@H]2[C@]1(C)CC[C@H]1[C@]23C=C[C@]2(C[C@@H](O)CC[C@]12C)OO3 [Compound 2, ergosterol peroxide] | reached statistical significance
2 | C[C@H](CC[C@H](O)C(C)(C)O)[C@H]1CC[C@@]2(C)C3=C(CC[C@]12C)[C@@]1(C)CCC(=O)C(C)(C)[C@@H]1CC3=O [Compound 11, lucidumol A] | reached statistical significance
3 | C[C@H](CC[C@H](O)[C@](C)(O)CO)[C@H]1CC[C@@]2(C)C3=CC[C@H]4C(C)(C)C(=O)CC[C@]4(C)C3=CC[C@]12C [Compound 13, ganodermanontriol] | reached statistical significance
4 | C[C@H](CCC=C(CO)CO)[C@H]1CC[C@@]2(C)C3=CC[C@H]4C(C)(C)C(=O)CC[C@]4(C)C3=CC[C@]12C [Compound 14, ganoderiol F] | reached statistical significance
5 | ganoderic acid TR [Compound 12] | reached statistical significance

Same assay, conditions: dose-dependent FXR reporter activation; test concentrations 0.1-50 μM

Row | Compound | pEC50
6 | ganoderic acid TR [Compound 12] | < 4.85

Same assay, conditions: pure compounds 10 μg/mL; compared with CDCA 25 μM

Row | Compound | FXR induction (percent of CDCA)
7 | COc1ccc(-c2oc3cc(OC)c(OC)c(O)c3c(=O)c2OC)cc1OC [artemisetin] | activated FXR significantly, but at lower extent than CDCA
8 | COc1cc(CNC(=O)CCCCCCC(C)C)ccc1O [dihydrocapsaicin] | No activation
9 | C=CC(C)(C)c1cc2cc3c(cc2oc1=O)OC(C(C)(C)OC(C)=O)C3 (stereo not drawn) [rutamarin] | activated FXR significantly, but at lower extent than CDCA
